# Results published in patent US11306091B2, “Process for producing fluorinated compounds using alcohol solvent having unsaturated hydrocarbon” (FUTURECHEM CO., LTD, priority 2019, dated 2022).
# Assay: Comparison of solubility of precursor compounds according to the kind of reaction solvents (observation with the naked eye)
# Assay type: physicochemical
# Settings: for Solubility in 2-methyl-3-butene-2-ol (the present invention), 60° C. / Solubility in 2-methyl-3-butene-2-ol (the present invention), room temp: 1.0 ml 2-methyl-3-butene-2-ol; for Solubility in 2-methyl-3-butene-2-ol (the present invention), 60° C. / Solubility in 2-methyl-3-butyne-2-ol (the present invention), 60° C. / Solubility in t-amyl alcohol (KR 10-0789847), 60° C.: shaking 1 minute at 60° C.; for Solubility in 2-methyl-3-butene-2-ol (the present invention), 60° C. / Solubility in 2-methyl-3-butene-2-ol (the present invention), room temp / Solubility in 2-methyl-3-butyne-2-ol (the present invention), 60° C. / Solubility in 2-methyl-3-butyne-2-ol (the present invention), room temp / Solubility in t-amyl alcohol (KR 10-0789847), 60° C. / Solubility in t-amyl alcohol (KR 10-0789847), room temp: naked eye; for Solubility in 2-methyl-3-butene-2-ol (the present invention), room temp / Solubility in 2-methyl-3-butyne-2-ol (the present invention), room temp / Solubility in t-amyl alcohol (KR 10-0789847), room temp: shaking 1 minute at room temperature; for Solubility in 2-methyl-3-butyne-2-ol (the present invention), 60° C. / Solubility in 2-methyl-3-butyne-2-ol (the present invention), room temp: 1.0 ml 2-methyl-3-butyne-2-ol; for Solubility in t-amyl alcohol (KR 10-0789847), 60° C. / Solubility in t-amyl alcohol (KR 10-0789847), room temp: 1.0 ml t-amyl alcohol; for State of solution dissolved at 60° C. after cooling to room temperature, t-amyl alcohol: cooled to room temperature after the lapse of time; for State of solution dissolved at 60° C. after cooling to room temperature, 2-methyl-3-butene-2-ol / 2-methyl-3-butyne-2-ol: solvents of the present invention, dissolved by heating to 60° C., cooled to room temperature
# Description: Experiments for comparing the solubility in the 2-methyl-3-butene-2-ol solvent and 2-methyl-3-butyne-2-ol solvent according to the present invention, and the t-amyl alcohol solvent of the prior art (KE 10-0789847) were performed. Each of the precursors of FP-CIT, FDG, FLT, FMISO and FC119S in solid states was put in a vial, and 1.0 ml of each solvent was added thereto, followed by shaking at room temperature and 60° C. for 1 minutes, respectively, for dissolution.
smiles,measurement,value
CCC(Oc1ccc2ccccc2c1)OS(C)(=O)=O (centres unmarked) [1-(naphthalene-2-yloxy)propyl methanesulfonate],"Solubility in 2-methyl-3-butene-2-ol (the present invention), 60° C.",Dissolved
same,"Solubility in 2-methyl-3-butene-2-ol (the present invention), room temp",Dissolved
CS(=O)(=O)OCCCOc1ccc2ccccc2c1 [3-(naphthalene-2-yloxy)propyl methanesulfonate],"Solubility in 2-methyl-3-butene-2-ol (the present invention), 60° C.",Dissolved
same,"Solubility in 2-methyl-3-butene-2-ol (the present invention), room temp",Dissolved
"CN(C(=O)OC(C)(C)C)c1ccc(-c2nc3ccc(OC[C@@H](COS(=O)(=O)c4ccc([N+](=O)[O-])cc4)OC4CCCCO4)cc3s2)cn1 (stereo partly drawn) [FC119S, (2S)-3-((2-(6-((tert-butoxycarbonyl) (methyl)amino)pyridin-3-yl)benzo[d]thiazol-6-yl)oxy)-2-((tetrahydro-2H-pyran-2-yl)oxy)propyl 4-nitrobenzenesulfonate]","Solubility in 2-methyl-3-butene-2-ol (the present invention), 60° C.",Dissolved
same,"Solubility in 2-methyl-3-butene-2-ol (the present invention), room temp",Dissolved
same,"Solubility in 2-methyl-3-butyne-2-ol (the present invention), 60° C.",Dissolved
same,"Solubility in 2-methyl-3-butyne-2-ol (the present invention), room temp",Dissolved
same,"Solubility in t-amyl alcohol (KR 10-0789847), 60° C.",Insoluble
same,"Solubility in t-amyl alcohol (KR 10-0789847), room temp",Insoluble
"CC(=O)OC[C@H]1O[C@@H](OC(C)=O)[C@@H](OS(=O)(=O)C(F)(F)F)[C@@H](OC(C)=O)[C@@H]1OC(C)=O [FDG, 1,3,4,6-tetra-O-acetyl-2-O-trifluoro-methanesulfonyl-beta-D-mannopyranose]","Solubility in 2-methyl-3-butene-2-ol (the present invention), 60° C.",Dissolved
same,"Solubility in 2-methyl-3-butene-2-ol (the present invention), room temp",Dissolved
same,"Solubility in 2-methyl-3-butyne-2-ol (the present invention), 60° C.",Dissolved
same,"Solubility in 2-methyl-3-butyne-2-ol (the present invention), room temp",Dissolved
same,"Solubility in t-amyl alcohol (KR 10-0789847), 60° C.",Dissolved
same,"Solubility in t-amyl alcohol (KR 10-0789847), room temp",Insoluble
same,"State of solution dissolved at 60° C. after cooling to room temperature, t-amyl alcohol",precipitated again as solids
"Cc1cn([C@H]2C[C@H](OS(=O)(=O)c3ccc([N+](=O)[O-])cc3)[C@@H](COC(c3ccccc3)(c3ccccc3)c3ccccc3)O2)c(=O)n(C(=O)OC(C)(C)C)c1=O [FLT, 3-N-Boc-5′-O-trityl-3′-O-nosyl-thymidine]","Solubility in 2-methyl-3-butene-2-ol (the present invention), 60° C.",Dissolved
same,"Solubility in 2-methyl-3-butene-2-ol (the present invention), room temp",Dissolved
same,"Solubility in 2-methyl-3-butyne-2-ol (the present invention), 60° C.",Dissolved
same,"Solubility in 2-methyl-3-butyne-2-ol (the present invention), room temp",Insoluble
same,"Solubility in t-amyl alcohol (KR 10-0789847), 60° C.",Insoluble
same,"Solubility in t-amyl alcohol (KR 10-0789847), room temp",Insoluble
same,"State of solution dissolved at 60° C. after cooling to room temperature, 2-methyl-3-butene-2-ol / 2-methyl-3-butyne-2-ol",not precipitated as solids
O=[N+]([O-])c1nccn1CC(O)CF (centres unmarked) [FMISO],"Solubility in 2-methyl-3-butene-2-ol (the present invention), 60° C.",Dissolved
same,"Solubility in 2-methyl-3-butene-2-ol (the present invention), room temp",Insoluble
same,"Solubility in 2-methyl-3-butyne-2-ol (the present invention), 60° C.",Dissolved
same,"Solubility in 2-methyl-3-butyne-2-ol (the present invention), room temp",Dissolved
same,"Solubility in t-amyl alcohol (KR 10-0789847), 60° C.",Dissolved
same,"Solubility in t-amyl alcohol (KR 10-0789847), room temp",Insoluble
same,"State of solution dissolved at 60° C. after cooling to room temperature, 2-methyl-3-butene-2-ol / 2-methyl-3-butyne-2-ol",not precipitated as solids
same,"State of solution dissolved at 60° C. after cooling to room temperature, t-amyl alcohol",precipitated again as solids
